Laboratory results published in patent publication US9504730B2, “Method of achieving a thymosin beta 4 concentration in a human patient” (REGENERX BIOPHARMACEUTICALS, INC., priority 2010, dated 2016).

Key:
[1] = Thymosin dosage regimens calculated with Formula II; design: species or system human
Text: A physician or health care provider may first determine a desired concentration of thymosin beta 4 (or a desired increase in concentration of thymosin beta 4 from an existing level) in a body portion of a live human patient in need of treatment. The physician or health care provider may then calculate the dosage necessary to achieve the desired concentration using the formula: C=(A)D·t^−B (Formula I), or D=C/(A)(t^−B) (Formula IA), wherein C is the predetermined thymosin beta 4 concentration to be provided in ng/mL, D is the dosage of thymosin beta 4 administered in mg, t is the time elapsed after administration of an initial dosage of thymosin beta 4 in hours (t is treated as a constant in this equation), A is about 30 to about 38, and B is about 0.5 to about 1. According to one embodiment, the formula is C=(35.6)D·t^−0.754 (Formula II). Time, t, may be 1, and D may equal C/35.6.
A patient in need of thymosin beta 4 treatment with a concentration of 10,000 ng/mL exogenous thymosin beta 4 is administered thymosin beta 4 according to a dosage schedule wherein D and t are calculated using C=(35.6)D*t[…].
A patient in need of thymosin beta 4 treatment with a concentration of 10,000 ng/mL exogenous thymosin beta 4 with a 1-hour dosing frequency is administered D=C/(A)t^−B=10,000 ng/mL/(35.6)(1^−0.75 h)=281 mg thymosin beta 4. […]

[2] = Analysis of TB4 concentration data from human patients administered different dosages of thymosin beta 4; format: in vivo; design: key to whether first dose brings TB4 concentration that high: ~: indicates first dose does not bring TB4 concentration that high; *: indicates the most efficient treatment (as determined by total required)
Text: The above formulas were developed by analysis of data from human patients who had been administered different dosages of thymosin beta 4. The frequency of dosing needed between dosages to achieve the desired concentration over time, multiplied by the dosage, gave the total drug administered in a 24-hour period. The dosage that maintained the required concentration with the lowest total drug administered was termed the most efficient. See Exampe I, below.
Based on the data collected, concentrations of TB4 in the body portion follow (especially soon after administration, with a decreasing correlation over time) a power function. An estimation of the concentration of thymosin beta 4 at 1 hour was determined using this model with an average within 10% of the experimental mean for the concentrations tested. The concentrations in the tested patients at 1 hour give an approximate range that can be efficiently maintained because the concentrations at about 1 hour are approximately 15% of the initial concentration (mean 14.7%, median 13.3%). The concentration found in human patients at 5 minutes after initial administration intravenously was defined as the initial concentration, and as Cmax, i.e. the maximum concentration achieved after administration of a dose. For the calculations made in the studies, the range of concentration which is the effective and desired dose was assumed to be 5-25% of this initial concentration (Cmax). In general, intervals between intravenous treatment times of about an hour also are the most reliably efficient in achieving and maintaining a particular concentration. Therefore, in certain embodiments, when calculating dosage using Formula I or Formula II, t may equal about 1. The concentration which is achieved with a particular dosage of thymosin beta 4 at 5 minutes (Cmax) can be found using Formula I by calculating C using the particular dosage (D) and 0.083 hours (5 minutes) as t.
Using Formula II, concentration at 1 hour is (35.6)D. In certain embodiments, the formula gives the concentration with an average error of about 10%, calculated against the experimental mean from in vivo patient data. Formulas I and II where t=1, therefore, provide a reasonable estimation of a concentration that is an acceptable and effective concentration to provide therapeutic treatment.
Treatment regimens to maintain a given dose (data summary): […]

[3] = Concentration > 1000 ng/mL in blood, infusion dosage 42 mg per dose
[4] = Concentration > 1000 ng/mL in blood, infusion dosage 140 mg per dose
[5] = Concentration > 1000 ng/mL in blood, infusion dosage 420 mg per dose
[6] = Concentration > 1000 ng/mL in blood, infusion dosage 1260 mg per dose
[7] = Concentration > 5000 ng/mL in blood, infusion dosage 42 mg per dose
[8] = Concentration > 5000 ng/mL in blood, infusion dosage 140 mg per dose
[9] = Concentration > 5000 ng/mL in blood, infusion dosage 420 mg per dose
[10] = Concentration > 5000 ng/mL in blood, infusion dosage 1260 mg per dose
[11] = Concentration > 10000 ng/mL in blood, infusion dosage 42 mg per dose
[12] = Concentration > 10000 ng/mL in blood, infusion dosage 140 mg per dose
[13] = Concentration > 10000 ng/mL in blood, infusion dosage 420 mg per dose
[14] = Concentration > 10000 ng/mL in blood, infusion dosage 1260 mg per dose
[15] = Concentration > 20000 ng/mL in blood, infusion dosage 140 mg per dose
[16] = Concentration > 20000 ng/mL in blood, infusion dosage 420 mg per dose
[17] = Concentration > 20000 ng/mL in blood, infusion dosage 1260 mg per dose
[18] = Concentration > 40000 ng/mL in blood, infusion dosage 420 mg per dose
[19] = Concentration > 40000 ng/mL in blood, infusion dosage 1260 mg per dose
[20] = human patients, intravenous, initial concentration = 5 minutes after administration (Cmax)

- time t between dosage forms calculated for the desired concentration ([1]; 10,000 ng/mL exogenous thymosin beta 4, 200 mg unit dosage forms): 0.637 h
- dosage D calculated for the desired concentration ([1]; 10,000 ng/mL exogenous thymosin beta 4, 1-hour dosing frequency): 281 mg
- A of Formula II C=(A)D·t^−B (concentration at 1 hour is (35.6)D) ([2]; C in ng/mL, D in mg, t in hours, developed by analysis of human patient data): 35.6
- Frequency of administration [2, 3]: 2 h
- Total TB4 required for 24 hour treatment [2, 3]: 504 mg
- Frequency of administration [2, 4]: 3 h
- Total TB4 required for 24 hour treatment [2, 4]: 1120 mg
- Frequency of administration [2, 5]: 6 h
- Total TB4 required for 24 hour treatment [2, 5]: 1680 mg
- Frequency of administration [2, 6]: 9 h
- Total TB4 required for 24 hour treatment [2, 6]: 3360 mg
- Frequency of administration [2, 7]: 0.167 h
- Total TB4 required for 24 hour treatment [2, 7]: 6048 mg
- Frequency of administration [2, 8]: 1 h
- Total TB4 required for 24 hour treatment [2, 8]: 5040 mg
- Frequency of administration [2, 9]: 2 h
- Total TB4 required for 24 hour treatment [2, 9]: 5040 mg
- Frequency of administration [2, 10]: 4 h
- Total TB4 required for 24 hour treatment [2, 10]: 7560 mg
- Frequency of administration [2, 11]: 0.083 h
- Total TB4 required for 24 hour treatment [2, 11]: 12096 mg
- Frequency of administration [2, 12]: 0.333 h
- Total TB4 required for 24 hour treatment [2, 12]: 10080 mg
- Frequency of administration [2, 13]: 1 h
- Total TB4 required for 24 hour treatment [2, 13]: 10080 mg
- Frequency of administration [2, 14]: 3 h
- Total TB4 required for 24 hour treatment [2, 14]: 10080 mg
- whether first dose brings TB4 concentration that high ([2]; Concentration > 20000 ng/mL in blood, infusion dosage 42 mg per dose): ~42
- Frequency of administration [2, 15]: 0.167 h
- Total TB4 required for 24 hour treatment [2, 15]: 20160 mg
- Frequency of administration [2, 16]: 0.667 h
- Total TB4 required for 24 hour treatment [2, 16]: 15120 mg
- Frequency of administration [2, 17]: 2 h
- Total TB4 required for 24 hour treatment [2, 17]: 15120 mg
- whether first dose brings TB4 concentration that high ([2]; Concentration > 40000 ng/mL in blood, infusion dosage 42 mg per dose): ~42
- whether first dose brings TB4 concentration that high ([2]; Concentration > 40000 ng/mL in blood, infusion dosage 140 mg per dose): ~140
- Frequency of administration [2, 18]: 0.167 h
- Total TB4 required for 24 hour treatment [2, 18]: 60480 mg
- Frequency of administration [2, 19]: 1 h
- Total TB4 required for 24 hour treatment [2, 19]: 30240 mg
- average concentration at 1 hour after administration, % of Cmax (SD) ([2]; human patients, experimental data, Cmax = 5-minute concentration): 15.7%±1.32%
- concentration at about 1 hour as % of the initial concentration, mean [2, 20]: 14.7%
- concentration at about 1 hour as % of the initial concentration, median [2, 20]: 13.3%
- concentration at about 1 hour as % of the initial concentration ([2]; human patients, intravenous, initial concentration = 5 minutes after administration (Cmax), approximate): approximately 15%
- Cmax ([2]; human, in vivo, intravenous, 6 mg/kg to 18 mg/kg dosing (420 mg and 1260 mg unit dose, respectively), read-out: Cmax levels): 90 to 350 µg/mL
SMILES: CC[C@H](C)[C@H](NC(=O)[C@H](CCC(=O)O)NC(=O)[C@H](C)NC(=O)[C@H](CCSC)NC(=O)[C@H](CC(=O)O)NC(=O)[C@@H]1CCCN1C(=O)[C@H](CCCCN)NC(=O)[C@H](CC(=O)O)NC(=O)[C@H](CO)NC(C)=O)C(=O)N[C@@H](CCC(=O)O)C(=O)N[C@@H](CCCCN)C(=O)N[C@@H](Cc1ccccc1)C(=O)N[C@@H](CC(=O)O)C(=O)N[C@@H](CCCCN)C(=O)N[C@@H](CO)C(=O)N[C@@H](CCCCN)C(=O)N[C@@H](CC(C)C)C(=O)N[C@@H](CCCCN)C(=O)N[C@@H](CCCCN)C(=O)N[C@H](C(=O)N[C@@H](CCC(=O)O)C(=O)N[C@H](C(=O)N[C@@H](CCC(N)=O)C(=O)N[C@@H](CCC(=O)O)C(=O)N[C@@H](CCCCN)C(=O)N[C@@H](CC(N)=O)C(=O)N1CCC[C@H]1C(=O)N[C@@H](CC(C)C)C(=O)N1CCC[C@H]1C(=O)N[C@@H](CO)C(=O)N[C@@H](CCCCN)C(=O)N[C@@H](CCC(=O)O)C(=O)N[C@H](C(=O)N[C@H](C(=O)N[C@@H](CCC(=O)O)C(=O)N[C@@H](CCC(N)=O)C(=O)N[C@@H](CCC(=O)O)C(=O)N[C@@H](CCCCN)C(=O)N[C@@H](CCC(N)=O)C(=O)N[C@@H](C)C(=O)NCC(=O)N[C@@H](CCC(=O)O)C(=O)N[C@@H](CO)C(=O)O)[C@@H](C)CC)[C@@H](C)O)[C@@H](C)O)[C@@H](C)O [thymosin beta 4, Thymosin beta 4]
